3 compounds from ChEMBL document CHEMBL3124838, “Discovery of 6-aryl-azabenzimidazoles that inhibit the TBK1/IKK-ε kinases” (Bioorg Med Chem Lett, 2014) can be followed below.

For experiment [1], the target named is MAP kinase-activated protein kinase 2 (Homo sapiens) (UniProt P49137). The experiment in a line: Inhibition of human MAPKAP-K2 assessed as residual activity at 1 uM relative to control.
Experiment [2] concerns the target Fibroblast growth factor receptor 1 (Homo sapiens) (UniProt P11362). The experiment in a line: Inhibition of human FGFR1 assessed as residual activity at 1 uM relative to control.
Experiment [3] concerns the target Protein-tyrosine kinase 6 (Homo sapiens) (UniProt Q13882). The experiment in a line: Inhibition of human BRK assessed as residual activity at 1 uM relative to control.
Experiment [4] addresses Glycogen synthase kinase-3 beta (Homo sapiens) (UniProt P49841). The experiment in a line: Inhibition of human GSK3beta assessed as residual activity at 1 uM relative to control.
The target in experiment [5] is T1, Mitogen-activated protein kinase kinase kinase 7 (Homo sapiens) (UniProt O43318).
T1 sequence (whole entry): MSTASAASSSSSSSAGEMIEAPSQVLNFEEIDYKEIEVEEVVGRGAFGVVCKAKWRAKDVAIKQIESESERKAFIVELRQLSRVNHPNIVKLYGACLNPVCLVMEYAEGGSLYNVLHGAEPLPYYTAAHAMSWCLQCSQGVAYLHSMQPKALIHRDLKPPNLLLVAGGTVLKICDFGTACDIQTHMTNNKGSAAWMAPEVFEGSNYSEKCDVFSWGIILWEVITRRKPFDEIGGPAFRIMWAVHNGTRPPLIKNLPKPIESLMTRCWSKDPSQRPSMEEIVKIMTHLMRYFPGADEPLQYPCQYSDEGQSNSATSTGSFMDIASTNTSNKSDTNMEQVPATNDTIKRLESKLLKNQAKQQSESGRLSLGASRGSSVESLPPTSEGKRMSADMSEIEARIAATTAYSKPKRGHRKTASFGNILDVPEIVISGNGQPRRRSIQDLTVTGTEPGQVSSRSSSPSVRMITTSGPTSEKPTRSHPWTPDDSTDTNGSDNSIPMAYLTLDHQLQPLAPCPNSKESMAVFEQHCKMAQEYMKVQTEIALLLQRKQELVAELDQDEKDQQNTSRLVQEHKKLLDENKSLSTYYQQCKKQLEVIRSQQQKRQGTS
The experiment in a line: Inhibition of human TAK1 assessed as residual activity at 1 uM relative to control.

For experiment [6], the target named is MAP kinase-interacting serine/threonine-protein kinase 2 (Homo sapiens) (UniProt Q9HBH9). The experiment in a line: Inhibition of human MNK2 assessed as residual activity at 1 uM relative to control.
Sequence of MAP kinase-interacting serine/threonine-protein kinase 2 (Homo sapiens) (Q9HBH9 whole entry, looked up): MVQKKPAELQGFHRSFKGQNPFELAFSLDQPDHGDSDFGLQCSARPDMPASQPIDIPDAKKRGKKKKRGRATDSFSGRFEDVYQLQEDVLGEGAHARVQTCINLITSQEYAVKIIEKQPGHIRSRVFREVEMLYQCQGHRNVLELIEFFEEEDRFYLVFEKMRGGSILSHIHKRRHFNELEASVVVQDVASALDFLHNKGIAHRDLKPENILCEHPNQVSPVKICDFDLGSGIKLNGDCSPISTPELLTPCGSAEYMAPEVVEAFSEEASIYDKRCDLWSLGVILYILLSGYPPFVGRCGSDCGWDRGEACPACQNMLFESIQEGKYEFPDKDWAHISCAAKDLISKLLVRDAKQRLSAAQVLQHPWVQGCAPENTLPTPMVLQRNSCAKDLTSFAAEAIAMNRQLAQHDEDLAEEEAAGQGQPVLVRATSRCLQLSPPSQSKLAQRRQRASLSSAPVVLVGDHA
Experiment [7] deals with T2, Serine/threonine-protein kinase Nek2 (Homo sapiens) (UniProt P51955).
T2 sequence (whole entry): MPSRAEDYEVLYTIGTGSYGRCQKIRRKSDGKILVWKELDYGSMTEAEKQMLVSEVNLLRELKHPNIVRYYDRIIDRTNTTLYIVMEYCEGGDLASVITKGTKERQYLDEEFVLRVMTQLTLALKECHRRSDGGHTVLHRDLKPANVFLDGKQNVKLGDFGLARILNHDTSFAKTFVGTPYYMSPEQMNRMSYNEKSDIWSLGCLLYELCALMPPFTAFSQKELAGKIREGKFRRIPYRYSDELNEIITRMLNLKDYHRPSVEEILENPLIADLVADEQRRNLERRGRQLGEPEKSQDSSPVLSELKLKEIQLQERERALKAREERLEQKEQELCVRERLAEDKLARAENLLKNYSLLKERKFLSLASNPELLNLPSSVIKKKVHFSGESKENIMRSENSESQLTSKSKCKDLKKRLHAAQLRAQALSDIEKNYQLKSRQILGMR
The experiment is described as follows: Inhibition of human NEK2 assessed as residual activity at 1 uM relative to control.

Experiment [8] has as its target T3, Tyrosine-protein kinase JAK3 (Homo sapiens) (UniProt P52333).
T3 sequence (whole entry): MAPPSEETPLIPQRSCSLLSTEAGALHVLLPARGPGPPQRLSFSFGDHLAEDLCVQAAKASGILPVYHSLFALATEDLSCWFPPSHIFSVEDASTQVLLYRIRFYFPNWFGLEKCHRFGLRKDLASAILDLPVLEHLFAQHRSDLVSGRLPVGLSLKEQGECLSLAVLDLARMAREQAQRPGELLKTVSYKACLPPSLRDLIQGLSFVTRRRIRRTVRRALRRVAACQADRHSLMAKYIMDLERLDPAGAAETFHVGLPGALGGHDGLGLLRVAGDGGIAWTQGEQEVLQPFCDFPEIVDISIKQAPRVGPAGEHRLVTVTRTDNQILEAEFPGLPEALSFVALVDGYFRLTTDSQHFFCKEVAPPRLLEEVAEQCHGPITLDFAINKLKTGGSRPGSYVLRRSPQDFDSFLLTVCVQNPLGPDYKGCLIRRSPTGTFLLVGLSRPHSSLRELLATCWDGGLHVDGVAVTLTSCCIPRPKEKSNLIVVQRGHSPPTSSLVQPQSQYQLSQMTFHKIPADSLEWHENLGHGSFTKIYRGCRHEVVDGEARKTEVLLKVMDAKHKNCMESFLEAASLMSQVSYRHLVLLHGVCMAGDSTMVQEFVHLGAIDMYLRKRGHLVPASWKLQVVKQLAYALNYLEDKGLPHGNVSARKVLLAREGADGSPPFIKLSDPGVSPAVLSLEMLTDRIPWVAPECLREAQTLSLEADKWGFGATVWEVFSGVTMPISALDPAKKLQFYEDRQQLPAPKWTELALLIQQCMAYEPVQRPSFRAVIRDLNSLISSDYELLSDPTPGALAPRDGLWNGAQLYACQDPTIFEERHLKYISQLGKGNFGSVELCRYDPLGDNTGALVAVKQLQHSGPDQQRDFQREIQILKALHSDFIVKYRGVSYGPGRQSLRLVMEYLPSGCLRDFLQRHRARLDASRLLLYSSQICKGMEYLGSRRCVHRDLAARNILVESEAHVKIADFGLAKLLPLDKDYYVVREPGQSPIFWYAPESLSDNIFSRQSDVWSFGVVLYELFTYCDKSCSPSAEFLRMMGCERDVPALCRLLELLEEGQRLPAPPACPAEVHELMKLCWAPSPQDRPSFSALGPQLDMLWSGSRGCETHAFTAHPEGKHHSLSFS
The experiment is described as follows: Inhibition of human JAK3 assessed as residual activity at 1 uM relative to control.

In experiment [9] the target is Tyrosine-protein kinase Fer (Homo sapiens) (UniProt P16591). The experiment in a line: Inhibition of human FER assessed as residual activity at 1 uM relative to control.
Sequence of Tyrosine-protein kinase Fer (Homo sapiens) (P16591 whole entry, looked up): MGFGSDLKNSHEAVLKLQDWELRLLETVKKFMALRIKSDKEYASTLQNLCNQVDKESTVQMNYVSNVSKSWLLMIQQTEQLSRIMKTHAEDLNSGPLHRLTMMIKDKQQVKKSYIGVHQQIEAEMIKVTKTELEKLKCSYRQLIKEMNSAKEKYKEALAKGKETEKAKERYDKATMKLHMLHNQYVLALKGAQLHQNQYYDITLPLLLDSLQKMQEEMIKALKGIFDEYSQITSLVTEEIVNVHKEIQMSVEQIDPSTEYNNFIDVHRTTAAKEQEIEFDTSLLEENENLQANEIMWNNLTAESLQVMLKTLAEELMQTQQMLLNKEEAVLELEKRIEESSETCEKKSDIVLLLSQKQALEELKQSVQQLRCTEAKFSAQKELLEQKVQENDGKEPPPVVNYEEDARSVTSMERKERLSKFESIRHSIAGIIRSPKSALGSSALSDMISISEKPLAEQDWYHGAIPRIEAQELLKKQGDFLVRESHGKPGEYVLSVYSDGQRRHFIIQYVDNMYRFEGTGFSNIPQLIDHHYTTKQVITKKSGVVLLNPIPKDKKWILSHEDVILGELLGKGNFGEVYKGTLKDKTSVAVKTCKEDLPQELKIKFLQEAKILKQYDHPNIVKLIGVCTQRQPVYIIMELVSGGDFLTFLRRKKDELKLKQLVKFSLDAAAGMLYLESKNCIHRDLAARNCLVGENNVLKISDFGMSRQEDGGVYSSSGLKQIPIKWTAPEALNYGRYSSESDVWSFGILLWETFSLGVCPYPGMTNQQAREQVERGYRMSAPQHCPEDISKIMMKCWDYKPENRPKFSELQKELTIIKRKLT
Experiment [10] concerns the target Serine/threonine-protein kinase pim-2 (Homo sapiens) (UniProt Q9P1W9). The experiment is described as follows: Inhibition of human PIM-2 assessed as residual activity at 1 uM relative to control.

Sequence of MAP kinase-activated protein kinase 2 (Homo sapiens) (P49137 whole entry, looked up): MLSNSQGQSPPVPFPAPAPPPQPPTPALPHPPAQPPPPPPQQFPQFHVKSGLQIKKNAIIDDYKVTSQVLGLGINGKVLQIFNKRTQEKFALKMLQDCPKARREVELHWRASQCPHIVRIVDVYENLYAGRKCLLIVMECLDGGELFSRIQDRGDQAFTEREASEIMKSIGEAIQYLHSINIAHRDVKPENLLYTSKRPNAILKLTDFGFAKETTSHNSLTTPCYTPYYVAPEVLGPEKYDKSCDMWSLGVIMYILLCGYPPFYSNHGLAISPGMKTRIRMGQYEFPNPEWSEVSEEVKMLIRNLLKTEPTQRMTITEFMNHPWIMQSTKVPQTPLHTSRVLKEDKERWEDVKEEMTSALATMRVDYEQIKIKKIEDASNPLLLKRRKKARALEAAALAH
Sequence of Serine/threonine-protein kinase pim-2 (Homo sapiens) (Q9P1W9 whole entry, looked up): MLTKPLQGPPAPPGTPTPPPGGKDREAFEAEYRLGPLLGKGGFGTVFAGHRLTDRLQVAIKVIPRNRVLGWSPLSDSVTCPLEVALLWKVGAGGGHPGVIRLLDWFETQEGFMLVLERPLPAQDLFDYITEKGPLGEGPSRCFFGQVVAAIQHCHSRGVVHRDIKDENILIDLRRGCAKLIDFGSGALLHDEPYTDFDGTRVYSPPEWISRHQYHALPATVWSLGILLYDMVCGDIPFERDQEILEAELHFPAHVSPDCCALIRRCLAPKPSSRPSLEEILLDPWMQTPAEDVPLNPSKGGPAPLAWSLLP
Sequence of Glycogen synthase kinase-3 beta (Homo sapiens) (P49841 whole entry, looked up): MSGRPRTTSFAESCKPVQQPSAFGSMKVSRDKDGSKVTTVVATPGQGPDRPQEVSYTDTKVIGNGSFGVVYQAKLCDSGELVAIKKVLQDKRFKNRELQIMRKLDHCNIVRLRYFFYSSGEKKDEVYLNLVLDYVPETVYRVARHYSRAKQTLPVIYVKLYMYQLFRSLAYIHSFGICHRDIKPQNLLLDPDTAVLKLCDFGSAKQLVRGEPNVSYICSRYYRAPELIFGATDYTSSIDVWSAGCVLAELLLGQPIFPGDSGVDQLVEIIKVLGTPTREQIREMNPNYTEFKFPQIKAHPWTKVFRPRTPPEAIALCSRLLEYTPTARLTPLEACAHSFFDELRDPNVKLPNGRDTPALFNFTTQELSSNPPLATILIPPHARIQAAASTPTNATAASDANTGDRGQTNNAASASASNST
Sequence of Protein-tyrosine kinase 6 (Homo sapiens) (Q13882 whole entry, looked up): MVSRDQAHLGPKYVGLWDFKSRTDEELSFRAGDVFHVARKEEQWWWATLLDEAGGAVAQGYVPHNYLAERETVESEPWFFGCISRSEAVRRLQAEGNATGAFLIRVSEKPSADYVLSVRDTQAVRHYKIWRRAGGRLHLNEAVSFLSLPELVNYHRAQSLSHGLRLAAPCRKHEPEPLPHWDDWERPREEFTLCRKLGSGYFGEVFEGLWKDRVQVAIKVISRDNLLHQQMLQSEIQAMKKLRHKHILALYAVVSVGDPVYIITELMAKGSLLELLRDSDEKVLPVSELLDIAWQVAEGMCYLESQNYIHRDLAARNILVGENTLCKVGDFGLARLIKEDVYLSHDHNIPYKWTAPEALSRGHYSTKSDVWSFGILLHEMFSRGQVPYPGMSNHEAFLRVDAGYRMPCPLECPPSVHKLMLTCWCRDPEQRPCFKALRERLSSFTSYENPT
Sequence of Fibroblast growth factor receptor 1 (Homo sapiens) (P11362 22-822 limits assumed): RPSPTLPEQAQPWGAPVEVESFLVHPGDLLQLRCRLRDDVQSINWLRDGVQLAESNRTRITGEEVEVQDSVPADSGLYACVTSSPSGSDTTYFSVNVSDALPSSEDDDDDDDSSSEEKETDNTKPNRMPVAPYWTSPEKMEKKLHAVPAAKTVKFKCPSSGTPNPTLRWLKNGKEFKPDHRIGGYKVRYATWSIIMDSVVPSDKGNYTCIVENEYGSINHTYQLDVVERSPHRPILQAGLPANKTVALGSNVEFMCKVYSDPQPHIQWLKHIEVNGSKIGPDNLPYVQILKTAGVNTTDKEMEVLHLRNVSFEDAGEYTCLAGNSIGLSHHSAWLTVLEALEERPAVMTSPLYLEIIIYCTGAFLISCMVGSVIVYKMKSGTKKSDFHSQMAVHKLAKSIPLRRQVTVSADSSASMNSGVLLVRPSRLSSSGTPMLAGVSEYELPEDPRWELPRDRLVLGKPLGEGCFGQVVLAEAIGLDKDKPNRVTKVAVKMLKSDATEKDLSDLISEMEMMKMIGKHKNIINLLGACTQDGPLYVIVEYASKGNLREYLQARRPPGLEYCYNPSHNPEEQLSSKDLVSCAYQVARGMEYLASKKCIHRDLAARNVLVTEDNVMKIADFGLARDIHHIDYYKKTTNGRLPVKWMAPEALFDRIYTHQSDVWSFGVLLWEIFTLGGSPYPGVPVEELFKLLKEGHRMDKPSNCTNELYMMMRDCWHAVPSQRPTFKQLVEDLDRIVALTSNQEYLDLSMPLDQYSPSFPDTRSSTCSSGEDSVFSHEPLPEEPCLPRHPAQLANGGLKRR

For the compound `COc1ccc(-c2nc3cc(-c4csc(C(=O)NCC(C)(C)C)c4)cnc3[nH]2)cc1`, the Activity in experiment [1] stood at 98%; in experiment [2], 94%; in [3], 102%; in [4] it was 106%; in experiment [5], 79%; in experiment [6] it was 5%. Further, the Activity in experiment [7] was found to be 111%; in experiment [8] it was 94%; in [9] it was 100%; in experiment [10], 93%.
As to `COc1ccc(-c2nc3cc(-c4csc(C(=O)NCCC(C)C)c4)cnc3[nH]2)cc1`, the Activity in experiment [1] came to 94%; in [2], 91%; in [3], 112%; in [4] it was 83%; in experiment [5], 85%; in experiment [6], 1%. In addition, the Activity was 97% in [7], 96% in experiment [8], 104% in [9] and 94% in experiment [10].
Take `COc1ccc(-c2nc3cc(-c4csc(C(=O)NCC(C)C)c4)cnc3[nH]2)cc1`: the Activity was determined as 101% in experiment [1]; 70% in experiment [2]; 110% in [3]; 102% in experiment [4]; 85% in experiment [5]; 4% in experiment [6]. For the same compound, the Activity in experiment [7] worked out at 120%; in experiment [8], 91%; in experiment [9], 111%; in experiment [10] it was 90%.
